Entries after “also recorded” stand apart in the source; their conditions may differ.
Experiments:
HDAC5 = biological target: T1, HDAC5 (Homo sapiens, UniProt Q9UQL6); test: Individualized HDAC assay, HDAC5; assay type: biochemical; conditions: purified enzyme, 5 to 0.02 μM
T1 construct: purchased BPS Biosciences
Description: (§1) The activity of the curcuphenol analogues was assessed with purified HDAC enzymes from all classes I, II, and IV, as well as a select member of HDAC class III (SIRT1). HDACs 1-9 and SIRT1 were evaluated using HDAC Fluorogenic Assay Kits (BPS Biosciences). All assays were completed in black-sided clear-bottom 96 well plates (PerkinElmer), and all treatments were plated in triplicates. Treatment started at 5 μM and was two-fold diluted to a concentration 0.02 μM. The assays were measured using the Synergy HI hybrid reader (BioTek) and Gen5 software (BioTek), excitation was set to 360 nm and detection was measured at 450 nm with a gain of 100. Alternatively HDAC 10 and 11 (BPS Biosciences) were optimized for HDAC concentration using the HDAC-Glo™ I/II Assay and Screening System (Promega). Following optimization each HDAC was run following the Promega protocol in black-sided clear-bottomed 96 well plates in triplicates with same treatments listed above (PerkinElmer). Luminescence was read 30 minutes after HDAC-Glo™I/II reagent was added using the Synergy HI hybrid reader (BioTek) and Gen5 software (Bio-Tek). […] To calculate percent activity, the average of blank wells was subtracted from all treatment groups. The relative mean of activity of the HDAC being measured was determined and all wells that received treatment were divided this average, to give a percentage of activity.
(§2) To evaluate the effect of the compounds on specific HDACs, their activity was assessed with purified HDAC enzymes from all classes I, II, and IV, as well as a select member of HDAC class III (SIRT1). HDACs 1-9 and SIRT1 were evaluated using HDAC Fluorogenic Assay Kits (BPS Biosciences) following the manufacturer's recommendations. Compound treatment started at 5 μM and was two-fold diluted to a concentration 0.02 μM. Alternatively, HDAC 10 and 11 assays (BPS Biosciences) were optimized to be used with the HDAC-Glo™ I/II Assay and Screening System (Promega). The assays were measured using the Synergy HI hybrid reader (BioTek) and Gen5 software (Bio-Tek). […] To calculate the fold change in HDAC activity, the values from each treated well were divided by the relative mean of activity of the specific HDAC being measured.

MHC-I = MHC-I surface expression by flow cytometry; assay type: cell-based, murine; conditions: for induction of MHC-I expression at the cell surface: 48 hours after treatment, flow cytometry; for MHC class I upregulation: relative to DMSO
Description: (§3) A9 and TC-1 cell lines were trypsinized (0.05%, Gibco), washed twice with PBS (Gibco), and stained with allophycocyanin (APC) conjugated anti-mouse H-2K^b antibody (1:200, Biolegend) suspended in 150 μL of FACS buffer (PBS+2% FBS) for 20 minutes at 4° C. Cells were washed twice with PBS and re-suspended in 200 μL FACs buffer containing 1 μL of 7-aminoactinomycin (7AAD) viability stain (Biolegend). Flow cytometry was performed on the LSRII (BDBiosciences) and analysis was done using FlowJo (Flow cytometry Analysis Software).
(§4) The marine extract library was provided by Dr. Raymond J. Andersen (UBC). The marine invertebrate specimens were collected by SCUBA diving at a 40 metre depth from regions of high marine biodiversity in Papua New Guinea, Indonesia, Thailand, Sri Lanka, Dominica, Brazil, British Columbia, South Africa, and Norway 35. Previously curcuphenol was identified as the active component in one of the marine extracts showing induction of the APM, and since then two new generations of curcuphenol analogues were synthesized in the lab of Dr. Raymond Anderson. To evaluate the ability of these compounds to induce MHC-I surface expression, A9 cells were plated in 6 well plates at 10^5 cells/well and incubated for 24 hours at 37° C. in a 5% CO2 humidified atmosphere. After 24 hours the medium was removed and replaced with medium containing varying concentration of synthesized compounds (6.7 μg/mL, 20 μg/mL, 60 μg/mL). […] Following treatment, cells were incubated for 48 hours at 37° C. with 5% CO2 and humidified atmosphere. After incubation cells were subjected to flow cytometry.
Evaluation of MHC-I surface expression by flow cytometry. LMD:TAP-1 cells or A9 cells were plated in 6 well plates at a concentration of 10,000 cells per well in a 2 mL volume. The next day, cells were treated with the indicated concentrations of the compounds and incubated for 48 hours at 37° C. After incubation, the cells were trypsinized, washed and stained with APC-conjugated anti-mouse MHC-I (specifically anti-H-2K^b) antibody (Biolegend) and assessed by flow cytometry analysis.

HDAC8 = biological target: T2, HDAC8 (Homo sapiens, UniProt Q9BY41); test: Individualized HDAC assay, HDAC8; assay type: biochemical; conditions: purified enzyme; for concentration at which HDAC8 inhibition was seen: 5 to 0.02 μM tested; for HDAC8 activity at higher concentrations: up to 5 μM
T2 construct: purchased BPS Biosciences
T2 sequence (Q9BY41 1-377): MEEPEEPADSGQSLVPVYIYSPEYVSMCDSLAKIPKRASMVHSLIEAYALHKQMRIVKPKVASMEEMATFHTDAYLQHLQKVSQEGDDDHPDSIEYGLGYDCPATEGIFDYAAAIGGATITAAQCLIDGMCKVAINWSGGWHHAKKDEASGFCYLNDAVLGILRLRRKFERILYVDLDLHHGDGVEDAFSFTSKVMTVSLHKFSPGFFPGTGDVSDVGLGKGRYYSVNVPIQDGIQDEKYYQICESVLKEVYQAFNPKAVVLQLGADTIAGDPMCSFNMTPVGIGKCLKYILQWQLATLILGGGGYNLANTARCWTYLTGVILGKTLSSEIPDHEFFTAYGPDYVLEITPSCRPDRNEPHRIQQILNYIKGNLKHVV
Description: as §1, §2

A9 cell line = test: Cytotoxicity / live cell frequency in A9 cells (flow cytometry, 7AAD); assay type: cell-based, murine; conditions: for cytotoxicity: 48 hours after treatment
Description: as §3, §4

T1 sequence (Q9UQL6 whole entry): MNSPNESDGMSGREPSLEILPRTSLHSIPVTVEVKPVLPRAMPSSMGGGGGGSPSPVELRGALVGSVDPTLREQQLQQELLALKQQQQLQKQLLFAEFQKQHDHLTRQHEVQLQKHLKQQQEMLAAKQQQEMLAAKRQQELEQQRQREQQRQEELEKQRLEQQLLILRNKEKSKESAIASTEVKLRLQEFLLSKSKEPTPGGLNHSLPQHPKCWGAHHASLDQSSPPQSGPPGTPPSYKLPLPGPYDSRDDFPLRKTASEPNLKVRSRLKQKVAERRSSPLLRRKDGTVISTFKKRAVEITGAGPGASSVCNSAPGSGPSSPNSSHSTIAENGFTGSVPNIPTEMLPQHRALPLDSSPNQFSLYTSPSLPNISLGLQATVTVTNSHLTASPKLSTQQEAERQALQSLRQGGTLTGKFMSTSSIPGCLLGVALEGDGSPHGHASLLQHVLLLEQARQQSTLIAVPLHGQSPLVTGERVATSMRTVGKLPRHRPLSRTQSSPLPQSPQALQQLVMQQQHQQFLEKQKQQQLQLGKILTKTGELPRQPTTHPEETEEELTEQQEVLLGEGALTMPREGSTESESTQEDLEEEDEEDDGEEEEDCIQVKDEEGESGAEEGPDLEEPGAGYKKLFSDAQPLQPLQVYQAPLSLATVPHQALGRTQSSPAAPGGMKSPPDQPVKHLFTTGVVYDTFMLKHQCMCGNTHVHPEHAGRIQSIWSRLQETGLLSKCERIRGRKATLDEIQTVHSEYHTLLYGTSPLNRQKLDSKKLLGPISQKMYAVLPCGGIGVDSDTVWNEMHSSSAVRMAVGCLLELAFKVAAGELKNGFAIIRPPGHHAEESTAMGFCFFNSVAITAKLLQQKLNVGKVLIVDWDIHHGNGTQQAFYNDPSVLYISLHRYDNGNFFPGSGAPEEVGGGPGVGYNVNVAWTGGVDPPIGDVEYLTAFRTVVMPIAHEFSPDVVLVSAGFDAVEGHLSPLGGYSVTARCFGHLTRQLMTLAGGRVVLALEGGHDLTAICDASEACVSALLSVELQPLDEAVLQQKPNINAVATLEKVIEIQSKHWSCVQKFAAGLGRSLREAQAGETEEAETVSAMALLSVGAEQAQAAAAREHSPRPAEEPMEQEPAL

In the case of `CC(C)=CCC[C@H](C)c1ccc(C)cc1O` [Curcuphenol, curcuphenol], the HDAC5 activity (HDAC5) is reported as “activates”, the “concentration of optimum MHC upregulation and live cell frequency” value (MHC-I; A9 cells, 48 hours) is reported as 0.064 µmol and the “induction of MHC-I expression at the cell surface” value (“induction of MHC-I expression” below) (MHC-I; A9 cells) is reported as “enhances the expression of MHC-I”. The “MHC class I upregulation” value (MHC-I; A9 cells, 48 hours, 0.032, 0.064 and 0.128 μmol) was “upregulated”, the “MHC class I upregulation” value (MHC-I; A9 cells, 48 hours, 0.055, 0.064 and 0.071 umol) was “upregulated” and the “surface MHC I molecules” value (MHC-I; cancer cell lines in vitro) was “significantly increased”. The “effect on HDAC8 activity” value (HDAC8) was “selectively inhibits”, the cytotoxicity (A9 cell line) was “low cellular toxicity” and the live cell frequency (A9 cell line; 48 hours, 0.128 μmol) was “drops substantially”.

`CC(C)=CCCCc1ccc(C)cc1O` [P02-113] was tested, and the HDAC5 activity (HDAC5) was “enhanced; also recorded: increase in activity levels”, the “induction of MHC-I expression” value (MHC-I; A9 cells) was “strong induction of MHC-I; also recorded: greatest consistent induction of MHC-I expression; also recorded: highest expression of MHC-I” and the “effect on HDAC8 activity” value (HDAC8) was “act as inhibitors to HDAC8; also recorded: slight inhibition at lower concentrations”. For the same compound, the “concentration at which HDAC8 inhibition was seen” value (HDAC8) was at most 0.3 µM, the “HDAC8 activity at higher concentrations” value (HDAC8) was “no change in HDAC8 activity” and the cytotoxicity (A9 cell line) was “low cytotoxicity; also recorded: lowest cytotoxicity”.

With `COc1ccc(C(C)CCC=C(C)C)c(O)c1` (stereo not shown) [P03-97-1] the HDAC5 activity (HDAC5) was “enhanced; also recorded: increase in activity levels”, the HDAC5 activity (HDAC5; listed as PO-3-97-1) was “enhanced” and the “induction of MHC-I expression” value (MHC-I; A9 cells) was “strong induction of MHC-I; also recorded: greatest consistent induction of MHC-I expression; also recorded: highest expression of MHC-I”. For the same compound, the “effect on HDAC8 activity” value (HDAC8) was “act as inhibitors to HDAC8; also recorded: slight inhibition at lower concentrations”, the “concentration at which HDAC8 inhibition was seen” value (HDAC8) was 0.02 µM and the “HDAC8 activity at higher concentrations” value (HDAC8) was “no change in activity”. For the same compound, the cytotoxicity (A9 cell line) was “low cytotoxicity; also recorded: lowest cytotoxicity”.

From patent US20220105051A1, “COMPOUNDS FOR INCREASING MHC-I EXPRESSION AND MODULATING HISTONE DEACETYLASE ACTIVITY” (Cava Healthcare Inc., priority 2019, published 2022)
